From patent US11826373B2, “Methods for treatment of diseases” (Galera Labs, LLC, priority 2011, dated 2023) come the findings set out here.

The assay is described as follows: Activity toward hydrogen peroxide. The assay is classed as biochemical.
With `CC(C)c1cc(C(=O)O)c([O-])c(C(C)C)c1.CC(C)c1cc(C(=O)O)c([O-])c(C(C)C)c1.[Cu+2]` [CuDIPS, copper [II] diisopropylsalicylate], the “activity toward hydrogen peroxide” value was “significant activity”.
With mangafodipir, the “activity toward hydrogen peroxide” value is reported as “significant activity”.
The value for “manganese [III] tetrakis-(5,10,15,20)-benzoic acid porphyrin [MnTBAP]” was “significant activity”.
